Counter-ions that a name gives are not always drawn.

One assay relates to RSV Long strain. Description: Viral cytopathic effect (CPE) assay, anti-RSV activity. The settings on record: RSV Long strain (ATCC); cell viability after 6 days, Cell Counting kit-8. In kind it is cell-based, Respiratory Syncytial Virus. The method, boiled down:
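EC50 was derived from CCK-8 viability at 450/630 nm measured 6 days post-infection. Infection used enough RSV Long strain for approximately 80–90% cytopathic effect, in the presence of half-log serially diluted compound. Cells were plated the day before at 6×10^3 per well in DMEM/10% FBS.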
For orientation: Damage to the host cells serves as the signal in cytopathic effect assays.
In the case of `Cc1ccc2nc(N3CC[S+]([O-])c4ccccc4C3)cc(NCC3(N)COC3)c2c1` (single isomer, unassigned; (+)) [Example 18-2, (+)-N-[(3-Aminooxetan-3-yl)methyl]-6-methyl-2-[1-oxido-2,3-dihydro-1,4-benzothiazepin-4(5H)-yl]quinolin-4-amine], the concentration for a half-maximal effect (EC50) – broadly, the concentration needed to bring the measured effect to its halfway point – came out at 0.024 µM. In other words, the double-digit nanomolar range.

The same assay, now with this note: human respiratory syncytial virus, 144 h, RSV Long strain (ATCC); cell viability after 6 days, Cell Counting kit-8.
For `N=C(N)NCCNc1cc(N2CCCc3ccccc3C2)nc2ccccc12` [Example 125, 1-(2-{[2-(1,3,4,5-Tetrahydro-2H-2-benzazepin-2-yl)quinolin-4-yl]amino}ethyl)guanidine trifluoroacetate], the EC50 is 2.52 µM.
Still for that read-out and setting: with `COCCOc1ccc2nc(N3CCS(=O)(=O)c4ccccc4C3)cc(NCCCN)c2c1` [Example 30-2, N-[2-(1,1-Dioxido-2,3-dihydro-1,4-benzothiazepin-4(5H)-yl)-6-(2-methoxyethoxy)quinolin-4-yl]propane-1,3-diamine] the figure was 0.218 µM.
Still for that read-out and setting: in the case of `Cc1ccc2nc(N3CCS(=O)(=O)c4ccccc4C3)cc(N3CCC(CN)CC3)c2c1` [Example 9-1, 1-{1-[2-(1,1-Dioxido-2,3-dihydro-1,4-benzothiazepin-4(5H)-yl)-6-methylquinolin-4-yl]piperidin-4-yl}methanamine] it was 2.35 µM; in that of `Cc1ccc2nc(N3CCS(=O)(=O)c4ccccc4C3)cc(NC3CCCC(N)C3)c2c1` (centres unmarked) [Example 3-16, N-[2-(1,1-Dioxido-2,3-dihydro-1,4-benzothiazepin-4(5H)-yl)-6-methylquinolin-4-yl]-cyclohexane-1,3-diamine], 0.075 µM; in that of `Cc1ccc2c(c1)S(=O)(=O)CCN(c1cc(NCC3(N)COC3)c3ccccc3n1)C2` [Example 2-4, N-[(3-Aminooxetan-3-yl)methyl]-2-(8-methyl-1,1-dioxido-2,3-dihydro-1,4-benzothiazepin-4(5H)-yl)-quinolin-4-amine], 0.081 µM.
On the same count and under the same terms, with `Cc1ccc2nc(N3CCS(=O)(=O)c4ccccc4C3)nc(NCC3(N)CC3)c2c1` [Example 135-1, N-[(1-Aminocyclopropyl)methyl]-2-(1,1-dioxido-2,3-dihydro-1,4-benzothiazepin-4(5H)-yl)-6-methylquinazolin-4-amine] the figure was 0.006 µM; with `O=S1(=O)CCN(c2cc(NCCO)c3cc(Cl)ccc3n2)Cc2ccccc21` [Example 9-31, 2-{[6-Chloro-2-(1,1-dioxido-2,3-dihydro-1,4-benzothiazepin-4(5H)-yl)quinolin-4-yl]amino}ethanol], 2.43 µM; with `Cc1ccc2nc(N3CCS(=O)(=O)c4ccccc4C3)cc(NC(=O)Cc3ccccn3)c2c1` [Example 47-6, N-[2-(1,1-Dioxido-2,3-dihydro-1,4-benzothiazepin-4(5H)-yl)-6-methylquinolin-4-yl]-2-(pyridin-2-yl)acetamide], 2.31 µM.
Regarding `Cc1ccc2nc(N3CCS(=O)(=O)c4ccccc4C3)cc(NCC3(N)COC3)c2c1` [Example 2-2, N-[(3-Aminooxetan-3-yl)methyl]-2-(1,1-dioxido-2,3-dihydro-1,4-benzothiazepin-4(5H)-yl)-6-methylquinolin-4-amine], the midpoint of the response, the EC50, lay at 0.002 µM.
Still for that read-out and setting: in the case of `O=S1(=O)CCN(c2cc(NCCO)c3cnccc3n2)Cc2ccccc21` [Example 12-2, 2-{[2-(1,1-Dioxido-2,3-dihydro-1,4-benzothiazepin-4(5H)-yl)-1,6-naphthyridin-4-yl]amino}ethanol] it was 0.315 µM.
On the same count and under the same terms, with `Cc1ccc2nc(N3CC[S+]([O-])c4ccccc4C3)nc(N[C@@H]3CNC[C@H]3F)c2c1` (relative stereo) [Example 92-1, N-(trans-4-Fluoropyrrolidin-3-yl)-6-methyl-2-(1-oxido-2,3-dihydro-1,4-benzothiazepin-4(5H)-yl)quinazolin-4-amine] the figure was 0.009 µM; with `NCCNc1cc(N2CCS(=O)(=O)c3ccccc3C2)nc2ccc(CO)cc12` [Example 10, {4-[(2-Aminoethyl)amino]-2-(1,1-dioxido-2,3-dihydro-1,4-benzothiazepin-4(5H)-yl)quinolin-6-yl}methanol], 0.003 µM; with `Cc1ccc2nc(N3CCS(=N)(=O)c4ccccc4C3)cc(NCCN)c2c1` (centres unmarked) [Example 76, N-[2-(1-Imino-1-oxido-1,2,3,5-tetrahydro-4H-1lambda˜4˜,4-benzothiazepin-4-yl)-6-methylquinolin-4-yl]ethane-1,2-diamine], 0.006 µM.
The same measure, in the same setting: in the case of `Cc1ccc2nc(N3CCS(=O)(=O)c4ccccc4C3)cc(N[C@H]3CNC[C@H]3O)c2c1` (relative stereo) [Example 28-4, cis-4-{[2-(1,1-Dioxido-2,3-dihydro-1,4-benzothiazepin-4(5H)-yl)-6-methylquinolin-4-yl]amino}pyrrolidin-3-ol] it was 0.001 µM; in that of `Cc1ccc2nc(N3CCS(=O)(=O)c4ccccc4C3)cc(NS(C)(=O)=O)c2c1` [Example 47-7, N-[2-(1,1-Dioxido-2,3-dihydro-1,4-benzothiazepin-4(5H)-yl)-6-methylquinolin-4-yl]methanesulfonamide trifluoroacetate], 3.41 µM; in that of `Cc1ccc2nc(N3CCS(=O)(=O)c4ccccc4C3)nc(N[C@@H]3CNC[C@H]3F)c2c1` (relative stereo) [Example 92-2, N-(trans-4-Fluoropyrrolidin-3-yl)-6-methyl-2-(1,1-dioxido-2,3-dihydro-1,4-benzothiazepin-4(5H)-yl)quinazolin-4-amine], 0.019 µM.
`NCC(F)(F)CNc1cc(N2CC[S+]([O-])c3ccccc3C2)nc2ccc(Cl)cc12` (centres unmarked) [Example 18-6, N-[6-Chloro-2-(1-oxido-2,3-dihydro-1,4-benzothiazepin-4(5H)-yl)quinolin-4-yl]-2,2-difluoropropane-1,3-diamine] returned an EC50 of 0.061 µM. This EC50 is about 3.2-fold higher than that of the compound before.
The same measure, in the same setting: in the case of `Cc1ccc2nc(N3CCS(=O)(=O)c4ccccc4C3)nc(NCC3(CN)COC3)c2c1` [Example 56-1, N-{[3-(Aminomethyl)oxetan-3-yl]methyl}-2-(1,1-dioxido-2,3-dihydro-1,4-benzothiazepin-4(5H)-yl)-6-methylquinazolin-4-amine] it was 0.002 µM; in that of `Cc1ccc2nc(N3CCS(=O)(=O)c4ccccc4C3)cc(NCC3CCCN3)c2c1` (centres unmarked) [Example 3-35, 2-(1,1-Dioxido-2,3-dihydro-1,4-benzothiazepin-4(5H)-yl)-6-methyl-N-(pyrrolidin-2-ylmethyl)quinolin-4-amine], 0.013 µM; in that of `Cc1ccc2nc(N3CCS(=O)(=O)c4ccccc4C3)nc(NCC3(N)COC3)c2c1` [Example 61-1, N-[(3-Aminooxetan-3-yl)methyl]-2-(1,1-dioxido-2,3-dihydro-1,4-benzothiazepin-4(5H)-yl)-6-methylquinazolin-4-amine], 0.005 µM.
Same read-out and setting: with `Cc1ccc2nc(N3CCS(=O)(=O)c4ccccc4C3)cc(N3CC(N)C3)c2c1` [Example 26-2, 1-[2-(1,1-Dioxido-2,3-dihydro-1,4-benzothiazepin-4(5H)-yl)-6-methylquinolin-4-yl]azetidin-3-amine] the figure was 0.179 µM; with `Cc1ccc2nc(N3CCCc4ccccc4C3)cc(NCCN)c2c1` [Example 118-3, N-[6-Methyl-2-(1,3,4,5-tetrahydro-2H-2-benzazepin-2-yl)quinolin-4-yl]ethane-1,2 diamine], 0.063 µM; with `NCC1(CNc2cc(N3CCS(=O)(=O)c4ccccc4C3)nc3ccc(CO)cc23)COC1` [Example 106, [4-({[3-(Aminomethyl)oxetan-3-yl]methyl}amino)-2-(1,1-dioxido-2,3-dihydro-1,4-benzothiazepin-4(5H)-yl)quinolin-6-yl]methanol], 0.002 µM.
Still for that read-out and setting: in the case of `Cc1cc2c(NCC3(N)COC3)cc(N3CCS(=O)(=O)c4ccccc4C3)nc2c(F)c1F` [Example 5-10, N-[(3-Aminooxetan-3-yl)methyl]-2-(1,1-dioxido-2,3-dihydro-1,4-benzothiazepin-4(5H)-yl)-7,8-difluoro-6-methylquinolin-4-amine] it was 0.397 µM; in that of `[2H]C([2H])([2H])c1ccc2nc(N3CC[S+]([O-])c4ccccc4C3)nc(NCC3(CN)COC3)c2c1` (centres unmarked) [Example 107, N-{[3-(Aminomethyl)oxetan-3-yl]methyl}-6-trideuteriomethyl-2-(1-oxido-2,3-dihydro-1,4-benzothiazepin-4(5H)-yl)quinazolin-4-amine], 0.001 µM; in that of `Cc1ccc2nc(N3CCS(=O)(=O)c4ccccc4C3)cc(NCC(C)N)c2c1` (centres unmarked) [Example 5-5, N˜1˜-[2-(1,1-Dioxido-2,3-dihydro-1,4-benzothiazepin-4(5H)-yl)-6-methylquinolin-4-yl]propane-1,2-diamine], 0.014 µM.
For `Cc1ccc2nc(N3CCS(=O)(=O)c4ccccc4C3)cc(N(CCO)CCO)c2c1` [Example 11-2, 2,2′-{[2-(1,1-Dioxido-2,3-dihydro-1,4-benzothiazepin-4(5H)-yl)-6-methylquinolin-4-yl]imino}diethanol], the EC50 was determined as 7.02 µM.
In turn, `Cc1ccc2nc(N3CCS(=O)(=O)c4ccccc4C3)cc(NCC3CN=C(N)O3)c2c1` (centres unmarked) [Example 38-1, N-[(2-Amino-4,5-dihydro-1,3-oxazol-5-yl)methyl]-2-(1,1-dioxido-2,3-dihydro-1,4-benzothiazepin-4(5H)-yl)-6-methylquinolin-4-amine] had a concentration giving a half-maximal response (EC50) of 0.01 µM.
On the same count and under the same terms, in the case of `NCCNc1cc(N2CCCc3ccc(O)cc3C2)nc2ccccc12` [Example 118-2, 2-{4-[(2-Aminoethyl)amino]quinolin-2-yl}-2,3,4,5-tetrahydro-1H-2-benzazepin-8-ol] it was 0.048 µM.
Same read-out and setting: with `Cc1ccc2nc(N3CCS(=O)(=O)c4ccccc4C3)cc(NCCCCCCCN)c2c1` [Example 3-30, N-[2-(1,1-Dioxido-2,3-dihydro-1,4-benzothiazepin-4(5H)-yl)-6-methylquinolin-4-yl]heptane-1,7-diamine] the figure was 7.81 µM; with `Cc1ccc2nc(N3CCS(=O)(=O)c4ccccc4C3)cc(N3C[C@@H](O)[C@@H](N)C3)c2c1` (relative stereo) [Example 13, cis-4-amino-1-[2-(1,1-Dioxido-2,3-dihydro-1,4-benzothiazepin-4(5H)-yl)-6-methylquinolin-4-yl]pyrrolidin-3-ol], 0.026 µM.

(Values after patent US8871756B2 (Hoffmann-La Roche Inc., priority 2011, dated 2014).)
